Reference: ChEMBL document CHEMBL3871301, “Biotransformation of isofraxetin-6-O-β-d-glucopyranoside by Angelica sinensis (Oliv.) Diels callus” (Bioorg Med Chem Lett, 2017)

Tests used:
[1] = species: Mus musculus; test: Cytotoxicity against mouse BV2 cells assessed as reduction in cell viability at antineuroinflammatory IC50 after 24 hrs in presence of LPS by MTT assay; type: toxicity, cell-based; settings: bv-2, 24 h
[2] = cells; settings: Mus musculus, BV-2, 24 h
Description: Antineuroinflammatory activity in mouse BV2 cells assessed as inhibition of LPS-induced NO production after 24 hrs in presence of LPS by Griess reaction based assay

Row | SMILES | IC50 [2] [µM] | Activity [1]
1 | O=Cc1c[nH]c2ccccc12 [3-FORMYLINDOLE] | 0.76 | Non-Toxic
2 | COc1cc2oc(=O)ccc2c(O)c1O | > 100 | –
3 | COc1ccc(Cc2ccc(OC)cc2)cc1 | 1.22 | Non-Toxic
4 | COc1cc([C@H]2Oc3c(OC)cc4ccc(=O)oc4c3O[C@@H]2CO)ccc1O [CLEOMISCOSIN A] | > 100 | –
5 | COc1cc2ccc(=O)oc2c(OC)c1O | > 100 | –
6 | NC(=O)Cc1ccccc1 | > 100 | –
7 | CN(C)c1ccc(O)c2c1C[C@H]1C[C@H]3[C@H](N(C)C)C(O)=C(C(N)=O)C(=O)[C@@]3(O)C(O)=C1C2=O [MINOCYCLINE] | 35.8 | –

More lines, main results first:

Row | IC50 [2] [µM] | SMILES | Activity [1]
8 | > 100 | COc1cc2c(c(OC)c1OC)-c1c(cc(OC)c(OC)c1OC)C[C@@](C)(O)[C@@H](C)C2 | –
9 | > 100 | COc1cc([C@@H]2COc3c(c(OC)cc4ccc(=O)oc34)O2)ccc1O | –
10 | 10.6 | COC(=O)Nc1ccc(C)c(NC(=O)OC)c1 | Non-Toxic
11 | > 100 | COc1cc2c(c(OC)c1OC)-c1c(cc3c(c1OC)OCO3)C[C@H](C)[C@H](C)C2 [WUWEIZISU B] | –
12 | > 100 | O=c1cc[nH]c(=O)[nH]1 [URACIL] | –
